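Interpolation was linear, between the two tested concentrations surrounding the appropriate level; five concentrations were tested over 48 hours in 96-well plates. GI50: concentration for 50% inhibition of growth.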 Activity calls are given as the source filed them. Rule as the data show it: active = GI50 up to about 1.1 µM and inactive = higher.
Key:
Experiment in all cases: NCI tumour cell line growth inhibition, 48 h
HOP-92 = tested on: HOP-92
NCI-H226 = tested on: NCI-H226
SK-MEL-28 = tested on: SK-MEL-28
SF-295 = tested on: SF-295
SW-620 = tested on: SW-620
ACHN = tested on: ACHN
SK-MEL-2 = tested on: SK-MEL-2
HL-60 = tested on: HL-60
OVCAR-8 = tested on: OVCAR-8
SF-539 = tested on: SF-539
SR = tested on: SR
TK-10 = tested on: TK-10
NCI-H460 = tested on: NCI-H460
MOLT-4 = tested on: MOLT-4
IGROV-1 = tested on: IGROV-1
SNB-19 = tested on: SNB-19
PC-3 = tested on: PC-3
Malme-3M = tested on: Malme-3M
EKVX = tested on: EKVX
UACC-257 = tested on: UACC-257
NCI/ADR-RES = tested on: NCI/ADR-RES
HCT-116 = tested on: HCT-116
MDA-MB-435 = tested on: MDA-MB-435
BT-549 = tested on: BT-549
COLO 205 = tested on: COLO 205
SN12C = tested on: SN12C
T47D = tested on: T47D
OVCAR-3 = tested on: OVCAR-3
DU-145 = tested on: DU-145
CCRF-CEM = tested on: CCRF-CEM
Hs-578T = tested on: Hs-578T
SF-268 = tested on: SF-268
UACC-62 = tested on: UACC-62
A498 = tested on: A498
SK-OV-3 = tested on: SK-OV-3
LOX IMVI = tested on: LOX IMVI
A549 = tested on: A549
NCI-H522 = tested on: NCI-H522
MCF7 = tested on: MCF7
MDA-N = tested on: MDA-N
U-251 = tested on: U-251
SK-MEL-5 = tested on: SK-MEL-5
MDA-MB-231 = tested on: MDA-MB-231
KM12 = tested on: KM12
NCI-H23 = tested on: NCI-H23
HCT-15 = tested on: HCT-15
UO-31 = tested on: UO-31
M14 = tested on: M14
RPMI-8226 = tested on: RPMI-8226
RXF 393 = tested on: RXF 393
OVCAR-4 = tested on: OVCAR-4
OVCAR-5 = tested on: OVCAR-5
CAKI-1 = tested on: CAKI-1
K562 = tested on: K562
786-0 = tested on: 786-0
HT-29 = tested on: HT-29
HOP-62 = tested on: HOP-62
SNB-75 = tested on: SNB-75
HCC 2998 = tested on: HCC 2998

COc1ccc(N(CC(=O)O)N=O)cc1
GI50 (HOP-92): > 100 µM (inactive)
GI50 (NCI-H226): > 100 µM (inactive)
GI50 (SK-MEL-28): > 100 µM (inactive)
GI50 (SF-295): > 100 µM (inactive)
GI50 (SW-620): > 100 µM (inactive)
GI50 (ACHN): > 100 µM (inactive)
GI50 (SK-MEL-2): > 100 µM (inactive)
GI50 (HL-60): > 100 µM (inactive)
GI50 (OVCAR-8): > 100 µM (inactive)
GI50 (SF-539): > 100 µM (inactive)
GI50 (SR): > 100 µM (inactive)
GI50 (TK-10): > 100 µM (inactive)
GI50 (NCI-H460): > 100 µM (inactive)
GI50 (MOLT-4): > 100 µM (inactive)
GI50 (IGROV-1): > 100 µM (inactive)
GI50 (SNB-19): > 100 µM (inactive)
GI50 (PC-3): > 100 µM (inactive)
GI50 (Malme-3M): > 100 µM (inactive)
GI50 (EKVX): > 100 µM (inactive)
GI50 (UACC-257): > 100 µM (inactive)
GI50 (NCI/ADR-RES): > 100 µM (inactive)
GI50 (HCT-116): > 100 µM (inactive)
GI50 (MDA-MB-435): > 100 µM (inactive)
GI50 (BT-549): > 100 µM (inactive)
GI50 (COLO 205): > 100 µM (inactive)
GI50 (SN12C): > 100 µM (inactive)
GI50 (T47D): > 100 µM (inactive)
GI50 (OVCAR-3): > 100 µM (inactive)
GI50 (DU-145): > 100 µM (inactive)
GI50 (CCRF-CEM): > 100 µM (inactive)
GI50 (Hs-578T): > 100 µM (inactive)
GI50 (SF-268): > 100 µM (inactive)
GI50 (UACC-62): > 100 µM (inactive)
GI50 (A498): > 100 µM (inactive)
GI50 (SK-OV-3): > 100 µM (inactive)
GI50 (LOX IMVI): > 100 µM (inactive)
GI50 (A549): > 100 µM (inactive)
GI50 (NCI-H522): > 100 µM (inactive)
GI50 (MCF7): > 100 µM (inactive)
GI50 (MDA-N): > 100 µM (inactive)
GI50 (U-251): > 100 µM (inactive)
GI50 (SK-MEL-5): > 100 µM (inactive)
GI50 (MDA-MB-231): > 100 µM (inactive)
GI50 (KM12): > 100 µM (inactive)
GI50 (NCI-H23): > 100 µM (inactive)
GI50 (HCT-15): > 100 µM
GI50 (UO-31): > 100 µM (inactive)
GI50 (M14): > 100 µM (inactive)
GI50 (RPMI-8226): > 100 µM (inactive)
GI50 (RXF 393): > 100 µM (inactive)
GI50 (OVCAR-4): > 100 µM (inactive)
GI50 (OVCAR-5): > 100 µM (inactive)
GI50 (CAKI-1): > 100 µM (inactive)
GI50 (K562): > 100 µM (inactive)
GI50 (786-0): > 100 µM (inactive)
GI50 (HT-29): > 100 µM (inactive)
GI50 (HOP-62): > 100 µM (inactive)

CC(C)CCC1(CCN)C(=O)NC(=O)NC1=O
GI50 (HOP-92): > 100 µM (inactive)
GI50 (NCI-H226): > 100 µM (inactive)
GI50 (SK-MEL-28): > 100 µM (inactive)
GI50 (SF-295): > 100 µM (inactive)
GI50 (SW-620): > 100 µM (inactive)
GI50 (ACHN): > 100 µM (inactive)
GI50 (SK-MEL-2): > 100 µM (inactive)
GI50 (HL-60): 38.2 µM (inactive)
GI50 (OVCAR-8): > 100 µM (inactive)
GI50 (SF-539): > 100 µM (inactive)
GI50 (SR): 6.68 µM (inactive)
GI50 (TK-10): > 100 µM (inactive)
GI50 (NCI-H460): > 100 µM (inactive)
GI50 (MOLT-4): 16.2 µM (inactive)
GI50 (IGROV-1): > 100 µM (inactive)
GI50 (SNB-19): > 100 µM (inactive)
GI50 (PC-3): > 100 µM (inactive)
GI50 (SNB-75): > 100 µM (inactive)
GI50 (Malme-3M): > 100 µM (inactive)
GI50 (EKVX): > 100 µM (inactive)
GI50 (UACC-257): > 100 µM (inactive)
GI50 (NCI/ADR-RES): > 100 µM (inactive)
GI50 (HCT-116): > 100 µM (inactive)
GI50 (MDA-MB-435): > 100 µM (inactive)
GI50 (BT-549): > 100 µM (inactive)
GI50 (COLO 205): > 100 µM (inactive)
GI50 (SN12C): > 100 µM (inactive)
GI50 (T47D): > 100 µM (inactive)
GI50 (OVCAR-3): > 100 µM (inactive)
GI50 (DU-145): > 100 µM (inactive)
GI50 (CCRF-CEM): 19.6 µM (inactive)
GI50 (Hs-578T): > 100 µM (inactive)
GI50 (SF-268): > 100 µM (inactive)
GI50 (UACC-62): > 100 µM (inactive)
GI50 (A498): > 100 µM (inactive)
GI50 (SK-OV-3): > 100 µM (inactive)
GI50 (LOX IMVI): > 100 µM (inactive)
GI50 (A549): > 100 µM (inactive)
GI50 (NCI-H522): > 100 µM (inactive)
GI50 (MCF7): > 100 µM (inactive)
GI50 (MDA-N): > 100 µM (inactive)
GI50 (U-251): > 100 µM (inactive)
GI50 (SK-MEL-5): > 100 µM (inactive)
GI50 (MDA-MB-231): > 100 µM (inactive)
GI50 (KM12): > 100 µM (inactive)
GI50 (NCI-H23): > 100 µM (inactive)
GI50 (HCT-15): > 100 µM
GI50 (UO-31): > 100 µM (inactive)
GI50 (M14): > 100 µM (inactive)
GI50 (RPMI-8226): > 100 µM (inactive)
GI50 (RXF 393): > 100 µM (inactive)
GI50 (OVCAR-4): > 100 µM (inactive)
GI50 (OVCAR-5): > 100 µM (inactive)
GI50 (CAKI-1): > 100 µM (inactive)
GI50 (K562): 16.3 µM (inactive)
GI50 (786-0): > 100 µM (inactive)
GI50 (HT-29): > 100 µM (inactive)
GI50 (HOP-62): > 100 µM (inactive)

S=c1[nH]c2ccc(Br)cc2c(=S)s1
GI50 (HOP-92): 16.6 µM (inactive)
GI50 (NCI-H226): 28.7 µM (inactive)
GI50 (SK-MEL-28): 52.7 µM (inactive)
GI50 (SF-295): 27.4 µM (inactive)
GI50 (SW-620): 30.8 µM (inactive)
GI50 (ACHN): 22.2 µM (inactive)
GI50 (SK-MEL-2): 20.6 µM (inactive)
GI50 (HL-60): 21.6 µM (inactive)
GI50 (OVCAR-8): 31.6 µM (inactive)
GI50 (SF-539): 34.4 µM (inactive)
GI50 (SR): 38.5 µM (inactive)
GI50 (TK-10): 32.9 µM (inactive)
GI50 (NCI-H460): 22.1 µM (inactive)
GI50 (MOLT-4): 29.9 µM (inactive)
GI50 (IGROV-1): 22.1 µM (inactive)
GI50 (SNB-19): 31.5 µM (inactive)
GI50 (PC-3): 19.3 µM (inactive)
GI50 (SNB-75): 28.1 µM (inactive)
GI50 (Malme-3M): 33.3 µM (inactive)
GI50 (EKVX): 27.8 µM (inactive)
GI50 (UACC-257): 23.5 µM (inactive)
GI50 (NCI/ADR-RES): 28.6 µM (inactive)
GI50 (HCT-116): 21.5 µM (inactive)
GI50 (MDA-MB-435): 23.2 µM (inactive)
GI50 (BT-549): 29.9 µM (inactive)
GI50 (COLO 205): 16.4 µM (inactive)
GI50 (HCC 2998): 26.1 µM (inactive)
GI50 (SN12C): 19.9 µM (inactive)
GI50 (T47D): 22.5 µM (inactive)
GI50 (OVCAR-3): 26.5 µM (inactive)
GI50 (DU-145): 38.1 µM (inactive)
GI50 (CCRF-CEM): 30.8 µM (inactive)
GI50 (Hs-578T): 40.5 µM (inactive)
GI50 (SF-268): 34.4 µM (inactive)
GI50 (UACC-62): 18 µM (inactive)
GI50 (SK-OV-3): 30 µM (inactive)
GI50 (LOX IMVI): 32.4 µM (inactive)
GI50 (A549): 30.6 µM (inactive)
GI50 (NCI-H522): 25.1 µM (inactive)
GI50 (MCF7): 17.9 µM (inactive)
GI50 (MDA-N): 23.4 µM (inactive)
GI50 (U-251): 22.9 µM (inactive)
GI50 (SK-MEL-5): 16.5 µM (inactive)
GI50 (MDA-MB-231): 22.8 µM (inactive)
GI50 (KM12): 29.4 µM (inactive)
GI50 (NCI-H23): 25.6 µM (inactive)
GI50 (HCT-15): 29.5 µM
GI50 (UO-31): 22.1 µM (inactive)
GI50 (M14): 30.5 µM (inactive)
GI50 (RPMI-8226): 29.2 µM (inactive)
GI50 (RXF 393): 27.6 µM (inactive)
GI50 (OVCAR-4): 10.8 µM (inactive)
GI50 (OVCAR-5): 19.2 µM (inactive)
GI50 (CAKI-1): 21.8 µM (inactive)
GI50 (K562): 29.6 µM (inactive)
GI50 (786-0): 30.8 µM (inactive)
GI50 (HT-29): 24.4 µM (inactive)
GI50 (HOP-62): 34.8 µM (inactive)

From ChEMBL document CHEMBL1201862, “PubChem BioAssay data set” (2004)
